Test results as given in patent US20260200890A1, “ADAR1 INHIBITORS AND METHODS OF USING THE SAME” (AVAMMUNE THERAPEUTICS INC., priority 2022, published 2026).

Columns and labels:
[1] = biological target: T1, Zα domain of ADAR1 p150 (Homo sapiens, UniProt P55265); assay: SPR binding assay; conditions: 6× his tag Zα domain immobilized on CM5 chip, analyte 0-25 μM
T1 construct: 10 μg/ml of Zα domain of ADAR1 was immobilized on CM5 chip using anti-HIS antibody; made in house
T1 sequence (P55265 133-199 limits assumed): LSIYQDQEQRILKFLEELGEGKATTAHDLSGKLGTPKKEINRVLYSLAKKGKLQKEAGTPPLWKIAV
Procedure: 6× his tag Za domain of ADAR1 p150 was purified using bacterial purification system. Protein was isolated from supernatant of cell lysate using Ni-NTA resin. For binding assay using SPR, 10 μg/ml of Zα domain of ADAR1 was immobilized on CM5 chip using anti-HIS antibody. Binding was quantified using the following condition below: • Analyte: 25, 12.5, 6.25, 3.125, 1.56, 0.78, 0 μM • Contact time—60 seconds, • Dissociation time—320 seconds • Flow rate—30 μL/minute Running buffer-PBSP+5% DMSO • After curve fitting, Kd values for synthesized compounds was quantified using the instrument software.

[2] = biological target: T2, ADAR1 (Homo sapiens, UniProt P55265); assay: ADAR1 Inhibition Assay (IFN fold-induction, Quanti-Luc luminescence, p110 KO A549 dual cells); type: cell-based; conditions: IFN fold-induction vs DMSO, 24 and 48 h
T2 construct: endogenous in cells; host or cells: p110 KO A549 dual cells
T2 sequence (P55265 1-1226): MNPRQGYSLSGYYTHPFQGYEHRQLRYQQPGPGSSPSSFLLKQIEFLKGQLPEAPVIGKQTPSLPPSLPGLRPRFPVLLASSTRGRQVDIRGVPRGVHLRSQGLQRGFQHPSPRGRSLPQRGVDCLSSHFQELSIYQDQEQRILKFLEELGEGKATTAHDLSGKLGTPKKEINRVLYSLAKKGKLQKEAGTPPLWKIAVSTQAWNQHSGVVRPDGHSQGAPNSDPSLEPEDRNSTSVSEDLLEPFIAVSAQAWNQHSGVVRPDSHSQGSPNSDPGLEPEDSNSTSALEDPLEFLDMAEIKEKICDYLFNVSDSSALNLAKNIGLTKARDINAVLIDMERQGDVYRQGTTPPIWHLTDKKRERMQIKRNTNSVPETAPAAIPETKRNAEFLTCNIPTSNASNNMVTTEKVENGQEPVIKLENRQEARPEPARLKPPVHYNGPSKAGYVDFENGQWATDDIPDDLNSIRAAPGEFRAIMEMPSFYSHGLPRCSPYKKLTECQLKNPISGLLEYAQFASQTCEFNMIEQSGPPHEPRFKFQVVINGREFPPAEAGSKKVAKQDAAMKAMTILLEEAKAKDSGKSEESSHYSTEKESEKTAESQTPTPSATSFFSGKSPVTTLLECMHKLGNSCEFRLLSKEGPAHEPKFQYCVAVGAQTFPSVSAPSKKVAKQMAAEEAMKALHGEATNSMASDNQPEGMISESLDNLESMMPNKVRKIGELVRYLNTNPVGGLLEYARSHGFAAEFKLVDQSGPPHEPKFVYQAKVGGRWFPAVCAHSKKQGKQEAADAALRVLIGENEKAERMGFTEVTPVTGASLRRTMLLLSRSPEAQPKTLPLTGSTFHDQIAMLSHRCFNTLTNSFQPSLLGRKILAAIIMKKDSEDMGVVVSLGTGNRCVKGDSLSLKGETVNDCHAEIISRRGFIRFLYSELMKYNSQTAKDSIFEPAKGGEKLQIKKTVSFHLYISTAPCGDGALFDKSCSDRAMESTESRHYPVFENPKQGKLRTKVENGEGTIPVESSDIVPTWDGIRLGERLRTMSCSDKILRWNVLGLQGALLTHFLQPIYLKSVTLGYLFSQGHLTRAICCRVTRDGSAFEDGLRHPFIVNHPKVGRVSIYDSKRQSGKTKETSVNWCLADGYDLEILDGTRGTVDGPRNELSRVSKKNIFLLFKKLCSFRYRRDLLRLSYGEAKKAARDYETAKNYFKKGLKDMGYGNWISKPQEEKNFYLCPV
Procedure, shortened: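 EC50 derived from IFN fold-induction, calculated as sample RLU over average DMSO RLU. Luminescence measured by Quanti-Luc on samples taken after 24 and 48 h of compound exposure (1% DMSO final, 37 °C, 5% CO2). Cells were p110 KO A549 dual, seeded at 20,000 per well in supplemented DMEM.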

| SMILES | Kd [1] | EC50 [2] |
| --- | --- | --- |
| CCOC(=O)c1cc(-c2ccccc2)sc1NC(=O)CNC(=O)c1cccc(NS(C)(=O)=O)c1 [Compound 13] | ≤ 1 µM | > 100 µM |
| CCOC(=O)c1cc(-c2ccccc2)sc1NC(=O)COC(=O)c1cccc(NS(C)(=O)=O)c1 [Compound 66, Ethyl 2-(2-((3-(methylsulfonamido)benzoyl)oxy)acetamido)-5-phenylthiophene-3-carboxylate] | ≤ 1 µM | ≤ 25 µM |
| CCOC(=O)c1cc(-c2ccccc2)sc1NC(=O)COC(=O)c1cccc(C(F)(F)F)c1 [Compound 70] | > 25 µM | > 100 µM |
| CCOC(=O)c1cc(-c2ccccc2)sc1NC(=O)COC(=O)c1cccc(C#N)c1 [Compound 71] | ≤ 1 µM | > 100 µM |
| CCOC(=O)c1cc(-c2ccccc2)sc1NC(=O)C1CCCN1C(=O)c1cccc(S(N)(=O)=O)c1 (stereo not drawn) [Compound 72] | 1 to 10 µM | ≤ 25 µM |
| CCOC(=O)c1cc(-c2ccccc2)sc1NC(=O)COC(=O)c1cccc(OS(=O)(=O)F)c1 [Compound 302] | ≤ 1 µM |  |
| CCOC(=O)c1cc(-c2ccccc2)sc1NC(=O)COC(=O)c1ccc2ccn(S(C)(=O)=O)c2c1 [Compound 340] |  | > 100 µM |
| CCOC(=O)c1cc(-c2ccccc2)sc1NC(=O)CNC(=O)c1cccc(CNS(C)(=O)=O)c1 [Compound 342] |  | > 100 µM |
| CCOC(=O)c1cc(P(=O)(OCC)OCC)sc1NC(=O)COC(=O)c1cccc(NS(C)(=O)=O)c1 [Compound 345] |  | > 100 µM |
| CCOC(=O)c1cc(NC(=O)COC(=O)c2cccc(NS(C)(=O)=O)c2)nn1-c1ccccc1 [Compound 347] |  | > 100 µM |
| CCOC(=O)c1cc(-c2ccccc2)sc1NC(=O)CNC(=O)Cc1cccc(P(=O)(OCC)OCC)c1 [Compound 348] |  | > 100 µM |
| CCOC(=O)c1cc(-c2ccccc2)[nH]c1NC(=O)COC(=O)c1cccc(NS(C)(=O)=O)c1 [Compound 352] |  | > 100 µM |
| CCOC(=O)c1cc(-c2ccccc2)sc1NC(=O)Cn1cc(CN(c2cccc(N)c2)S(C)(=O)=O)nn1 [Compound 353] |  | > 100 µM |
| CCOC(=O)c1sc(-c2ccccc2)cc1NC(=O)COC(=O)c1cccc(NS(C)(=O)=O)c1 [Compound 354] |  | > 100 µM |
| CCOC(=O)c1sc(-c2ccccc2)cc1NC(=O)CNC(=O)Cc1cccc(NS(C)(=O)=O)c1 [Compound 357] | 1 to 10 µM |  |
| CCOC(=O)c1cc(-c2ccccc2)sc1NC(=O)Cn1cc(CSc2cccc(NS(C)(=O)=O)c2)nn1 [Compound 360] |  | > 100 µM |
| CCOC(=O)c1cc(-c2ccccc2)sc1NC(=O)Cn1cc(CS(=O)(=O)c2cccc(NS(C)(=O)=O)c2)nn1 [Compound 362] |  | > 100 µM |
| CCOC(=O)c1cc(-c2ccccc2)sc1NC(=O)CNC(=O)Cc1ccc(OS(C)(=O)=O)c(NS(C)(=O)=O)c1 [Compound 368] |  | > 100 µM |
| CCOC(=O)c1sc(-c2ccccc2)cc1NC(=O)COC(=O)c1cccc(P(=O)(OCC)OCC)c1 [Compound 370] |  | > 100 µM |
| CCOC(=O)c1cc(-c2ccccc2)sc1NC(=O)CNC(=O)Cc1cccc(S(N)(=O)=O)c1 [Compound 371] |  | > 100 µM |
| CCOC(=O)c1cc(-c2ccccc2)sc1NC(=O)COC(=O)c1nonc1NS(C)(=O)=O [Compound 374] |  | > 100 µM |
| CCOC(=O)c1ccnc(-c2ccccc2)c1NC(=O)COC(=O)c1cccc(NS(C)(=O)=O)c1 [Compound 375] |  | > 100 µM |
| CCOC(=O)c1cc(-c2ccccc2)sc1NC(=O)CNC(=O)/C=C/c1cccc(NS(C)(=O)=O)c1 [Compound 377] |  | > 100 µM |
| CCOC(=O)c1cc(-c2ccccc2)sc1NC(=O)COC(=O)c1ccc2cc(NS(C)(=O)=O)ccc2c1 [Compound 378] |  | > 100 µM |
| CCOC(=O)c1cc(-c2ccccc2)sc1NC(=O)COC(=O)c1cccc(S(=O)(=O)NC(C)(C)C)c1 [Compound 379] |  | > 100 µM |

| SMILES | Kd [1] | EC50 [2] |
| --- | --- | --- |
| CCOC(=O)c1cc(-c2ccccc2)ncc1NC(=O)COC(=O)c1cccc(P(=O)(OCC)OCC)c1 [Compound 381] |  | > 100 µM |
| CCOC(=O)c1cc(-c2ccccc2)ncc1NC(=O)COC(=O)c1cccc(P(=O)(O)O)c1 [Compound 382] |  | > 100 µM |
| CCOC(=O)c1cc(-c2ccccc2)sc1NC(=O)C1CCCN1C(=O)c1cccc(P(=O)(OCC)OCC)c1 (stereo not drawn) [Compound 383] |  | > 100 µM |
| CCOC(=O)c1cc(-c2ccc(P(=O)(OCC)OCC)cc2)sc1NC(=O)COC(=O)c1cccc(P(=O)(OCC)OCC)c1 [Compound 390] |  | > 100 µM |
| CCOC(=O)c1cc(P(=O)(O)O)sc1NC(=O)COC(=O)c1cccc(NS(C)(=O)=O)c1 [Compound 391] |  | > 100 µM |
| CCOC(=O)c1cc(-c2ccccc2)sc1NC(=O)CN(C)C(=O)c1cccc(P(=O)(OCC)OCC)c1 [Compound 392] |  | 50 to 100 µM |
| CCOC(=O)c1cc(-c2ccccc2)sc1NC(=O)[C@@H]1CCCN1C(=O)c1cccc(P(=O)(OCC)OCC)c1 [Compound 393] |  | > 100 µM |
| CCOC(=O)c1cc(-c2ccccc2)sc1NC(=O)[C@H]1CCCN1C(=O)c1cccc(P(=O)(OCC)OCC)c1 [Compound 394] |  | > 100 µM |
| CCOC(=O)c1cc(-c2ccccc2)sc1NC(=O)Cn1cc(CNC(=O)c2cccc(P(=O)(OCC)OCC)c2)nn1 [Compound 401] |  | > 100 µM |
| CCOC(=O)c1cc(-c2ccccc2)sc1NC(=O)C1CCCN1C(=O)c1cccc(P(=O)(O)O)c1 (stereo not drawn) [Compound 404] |  | 50 to 100 µM |
| CCOC(=O)c1nc(-c2ccccc2)oc1NC(=O)COC(=O)c1cccc(P(=O)(OCC)OCC)c1 [Compound 407] |  | 50 to 100 µM |
| CCOC(=O)c1cc(-c2ccccc2)[nH]c1NC(=O)CNC(=O)c1cccc(P(=O)(OCC)OCC)c1 [Compound 408] |  | 50 to 100 µM |
| CCNC(=O)c1cc(-c2ccccc2)sc1NC(=O)CNC(=O)c1cccc(NS(C)(=O)=O)c1 [Compound 410] |  | 50 to 100 µM |
| CCOC(=O)c1cc(-c2ccccc2)sc1NC(=O)COC(=O)c1cccc(OP(=O)(N[C@H](C)C(=O)OC(C)C)Oc2ccccc2)c1 (stereo partly drawn) [Compound 411] |  | > 100 µM |
| CCOC(=O)c1cc(-c2ccccc2)sc1NC(=O)[C@@H]1CCCN1C(=O)c1cccc(P(=O)(O)O)c1 [Compound 413] |  | > 100 µM |
| CCOC(=O)c1cc(-c2ccccc2)sc1NC(=O)Cn1cc(C(=O)Nc2cccc(P(=O)(OCC)OCC)c2)nn1 [Compound 417] |  | > 100 µM |
| CCOC(=O)c1sc(-c2ccccc2)cc1NC(=O)COC(=O)c1cccc(S(N)(=O)=O)c1 [Compound 423] |  | > 100 µM |
| CCOC(=O)c1cc(-c2ccccc2)sc1NC(=O)C1CCN(C(=O)c2cccc(S(N)(=O)=O)c2)C1 (stereo not drawn) [Compound 425] |  | > 100 µM |
| CCOC(=O)c1cc(-c2ccc(P(=O)(OCC)OCC)cc2)sc1NC(=O)COC(=O)c1cccc(S(N)(=O)=O)c1 [Compound 429] |  | > 100 µM |
| CCOC(=O)c1cc(-c2ccccc2)sc1NC(=O)CNC(=O)CCc1cccc(P(=O)(O)O)c1 [Compound 432] | ≤ 1 µM |  |
| CCOC(=O)c1cc(-c2ccccc2)sc1NC(=O)CN(C)C(=O)c1cccc(P(=O)(O)O)c1 [Compound 435] | ≤ 1 µM |  |
| CCOC(=O)c1cc(-c2ccccc2)sc1NC(=O)CNC(=O)CCc1cccc(P(=O)(OCC)OCC)c1 [Compound 436] | ≤ 1 µM |  |
| CCNC(=O)c1cc(-c2ccccc2)sc1NC(=O)CNC(=O)c1ccc(P(=O)(OCC)OCC)cc1 [Compound 437] | ≤ 1 µM |  |
| CCOC(=O)c1cc(-c2ccccc2)sc1NC(=O)CNC(=O)c1cccc(C(=O)O)c1 [Compound 439] | ≤ 1 µM |  |
